Source: patent publication US12297220B2, “Phenethylamines and cathinones precursors” (Transcend Therapeutics, Inc., priority 2022, dated 2025)

Tests used:
PTSD = settings: clinical case series of 21 individuals; cited from earlier work
healthy volunteers = settings: self-administration; cited from earlier work
rat forced swim test = assay: Forced swim test (FST), antidepressant-like activity; type: in vivo
Protocol: The forced swim test (FST) is a classic model to assess the antidepressant-like activity of compounds that has been in use for over 40 years (Porsolt et al. (1977) Nature 266:730-732; Detke et al. (1995) Psychopharmacology 121:66-72). […] A single dose of 5 mg/kg methylone reduces immobility by approximately 50% compared to vehicle-treated controls, whereas a 15 mg/kg dose reduces immobility by nearly 100%. Accompanying changes in climbing and/or swimming behavior reflect noradrenergic and serotonergic activities of methylone, respectively.
All FST studies are performed and scored by an experimenter blind to treatment group and according to standard protocols. Briefly, rats are placed in a circular plexiglass container filled with water. Water temperature is maintained at 22-25° C. and changed for every animal. Day 1 (Training) consists of a 15 min acclimation trial, and Day 2 (Testing, 24 h later) consists of the 5 min test. A time sampling procedure is employed where animals are observed every 5 seconds for the duration of the test session (60 counts or 5 minutes) and scored for immobility (defined as the failure to struggle), swimming (defined as a circular movement around the tank), or climbing (defined as an upwards escape behavior). Data are expressed as the percent of the testing session (e.g., the number of immobility counts divided by 60). […]

open field test = settings: cited from earlier work
mouse model of PTSD = assay: Fear extinction recall in a mouse model of PTSD; type: in vivo; settings: 30 mg/kg, IP
Protocol: FIGS. 1A-1D: Methylone improves fear extinction recall in a mouse model of PTSD. (FIG. 1A) Schematic of experimental design. A single CS—US (tone-shock) pairing on day 1 was followed by 6 CS presentations in a novel context (context B). Methylone or saline vehicle was injected 30 min prior to extinction training on day 2. On day 3, the time spent freezing to the CS was quantified. […] (FIG. 1C) The time freezing before vs. during each of 6 cues on day 3 (to control for locomotor effects) are shown. There was a significant cue×drug interaction (F(5, 130)=2.409, p<0.05). […] N=12 for methylone group (30 mg/kg, IP, orange diamonds) and N=16 for saline control group (black squares). *p<0.05
Effective PTSD treatments facilitate the disassociation between a traumatic memory and the patient's fear response, making cues for the traumatic memory evoke less of a fear response. This is modeled in the mouse fear extinction paradigm which takes place over 3 days. On day 1 (fear conditioning), mice are trained to acquire a “traumatic memory,” namely associating the conditioned stimulus (CS, tone) to the unconditioned stimulus (US, foot shock). On day 2 (extinction training), they are trained to forget the traumatic memory association by presenting the CS 6 times (with no US) in a novel environment. On day 3 (extinction recall), the mice are “asked” if that tone (CS) still elicits a fearful response, as measured by the time spent freezing when the tone is presented. Less time freezing means better extinction recall. Drugs that improve extinction recall reduce freezing time on day 3, and, therefore, show potential as a PTSD treatment.
Using these methods, prodrugs are administered to mice and tested for efficacy in the fear extinction model to evaluate their efficacy to treat PTSD and other memory disorders.

[1] = Chemical stability in phosphate buffer without hepatocytes (negative control); type: physicochemical; settings: phosphate buffer pH 6.8 at 37° C., up to 2 hours
Protocol: (§1) Bioactivation Potential of Prodrug Candidates: After a prodrug is synthesized, its bioactivation potential to release methylone is assessed under in vitro conditions. As the prodrugs are designed to be enzymatically activated by esterases and amidases/peptidases found in the blood and/or the liver, each prodrug is incubated in human and rat whole blood as well as liver hepatocytes. In these assays, the percentage of released parent methylone and of remaining prodrug is measured at different timepoints for a period of 2 hours. A chemical stability assessment of each prodrug is also performed under various pH conditions to ensure that the methylone released is a result of enzymatic hydrolysis. Prodrugs that show in vitro bioactivation are then administered (IV/PO) to rats, and blood samples are collected to assess the pharmacokinetic profile of each prodrug.
When compound 50 was incubated with human hepatocytes under the conditions described above, at t=60 minutes, approximately 100% of the prodrug had been converted to methylone with a total recovery of approximately 100%.

human hepatocytes = assay: Prodrug bioactivation / metabolic stability in hepatocytes; type: in vitro ADME; settings: t=60 minutes
Protocol: as §1
For example, the metabolic stability of prodrug candidates to release methylone could be assessed in vitro according to the following protocol: cryopreserved human and rat hepatocytes are thawed in recovery media and diluted in plating media to a viable cell density of 1×10^6 cells/mL. Viability is determined by trypan blue exclusion. […] All samples, including analytical standards, are analyzed by LC-MS/MS to measure the concentration of methylone released and the concentration of the corresponding prodrug remaining. […]

fear extinction recall = settings: 7.5 mg/kg, 30 minutes prior to extinction training; cited from earlier work

CNC(C)C(=O)c1ccc2c(c1)OCO2 (centres unmarked) [Methylone, methylone]
patients with improved symptoms of PTSD (PTSD): 81% | heart rate (healthy volunteers): increase in heart rate | systolic and diastolic blood pressure (healthy volunteers): significant increase | antidepressant-like effect in the rat forced swim test (rat forced swim test): robust, dose-dependent antidepressant-like effect | thigmotaxis (time spent hugging the perimeter of the open field) (open field test; 5, 10, 20 mg/kg, SC, rats): reduce thigmotaxis | locomotor activity in the OFT (open field test; rat, in vivo): increases locomotor activity | time spent in the center vs the periphery in the OFT (open field test; rat, in vivo): reduces time spent in the center vs the periphery | fear extinction recall (mouse model of PTSD): significantly improves fear extinction recall | Freezing time during the first cue on day 3 (extinction recall) compared to saline (mouse model of PTSD; 30 min prior to extinction training, p<0.05): significantly reduced | locomotor changes on day 3 (mouse model of PTSD; p>0.05): No locomotor changes were observed

CC(OC(=O)C(C)C)OC(=O)N(C)C(C)C(=O)c1ccc2c(c1)OCO2 (centres unmarked) [compound 50, 1-(((1-(benzo[d][1,3]dioxol-5-yl)-1-oxopropan-2-yl)(methyl)carbamoyl)oxy)ethyl isobutyrate]
release of parent methylone in absence of hepatocytes [1]: no parent methylone was released | prodrug converted to methylone (human hepatocytes): approximately 100%

CNC(C)Cc1ccc2c(c1)OCO2 (centres unmarked) [MDMA]
reduced freezing compared to saline injected controls (extinction recall) (fear extinction recall): 35% | systolic and diastolic blood pressure (healthy volunteers): significant increase
